For 20 compounds, IC50 results are on record in US20230143612A1 (Arbutus Biopharma Corporation, priority 2020, published 2023).

In general, IC50 refers to the concentration that inhibits the measured activity by half. A higher IC50 goes with weaker potency in that assay.

The target in this test is PD-L1 His protein / PD-1 Fc protein (Homo sapiens, UniProt Q9NZQ7). Put plainly: HTRF Assay (PD-1/PD-L1 interaction). Conditions: PD-L1 His 6 nM, PD-1 Fc 6 nM. The format is binding. A digest of the protocol: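 HTRF: PD-L1 His (6 nM final), compound (3-fold dilutions, 20 μM to 0.001 μM final) and PD-1 Fc (6 nM final) preincubated 15 min at room temperature. Anti-human IgG-XL665 and anti-6HIS Tb cryptate (mixed at 6.7 nM and 0.35 nM) then added for 1 h at room temperature before reading.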
Chain of PD-L1 His protein / PD-1 Fc protein (Q9NZQ7 19-238 limits assumed): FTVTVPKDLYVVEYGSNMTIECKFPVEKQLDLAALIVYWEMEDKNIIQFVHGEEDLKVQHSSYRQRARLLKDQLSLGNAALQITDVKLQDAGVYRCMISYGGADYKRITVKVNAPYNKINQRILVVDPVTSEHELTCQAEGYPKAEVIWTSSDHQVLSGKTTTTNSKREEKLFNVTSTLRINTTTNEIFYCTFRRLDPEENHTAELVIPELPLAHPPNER
A general note: In TR-FRET formats the signal depends on donor and acceptor labels being close together.
The compound `COc1nc(-c2cccc(-c3cccc(-c4ccn5c(=O)c(CNC[C@@H]6CCC(=O)N6)cnc5c4)c3Cl)c2Cl)ccc1CNC[C@@H](C)O` [Example 198, 8-(2,2′-Dichloro-3′-(5-((((R)-2-hydroxypropyl)amino)methyl)-6-methoxypyridin-2-yl)-[1,1′-biphenyl]-3-yl)-3-(((((S)-5-oxopyrrolidin-2-yl)methyl)amino)methyl)-4H-pyrido[1,2-a]pyrimidin-4-one] came in with a half-inhibitory concentration (IC50) of 0.3 nM.

For `CNC(=O)CN(C)Cc1cnc2cc(-c3cccc(-c4cccc(-c5ccc(CNC[C@@H]6CCC(=O)N6)c(OC)n5)c4Cl)c3Cl)ccn2c1=O` [Example 200, (S)-2-(((8-(2,2′-Dichloro-3′-(6-methoxy-5-((((5-oxopyrrolidin-2-yl)methyl)amino)methyl)pyridin-2-yl)-[1,1′-biphenyl]-3-yl)-4-oxo-4H-pyrido[1,2-a]pyrimidin-3-yl)methyl)(methyl)amino)-N-methylacetamide], the IC50 amounted to 0.1 nM.

`COc1nc(-c2cccc(-c3cccc(-c4ccn5c(=O)c(CNC[C@@H]6CCC(=O)N6)c(OC)nc5c4)c3Cl)c2Cl)ccc1CNC[C@@H]1CCC(=O)N1` [Example 201, 8-(2,2′-Dichloro-3′-(6-methoxy-5-(((((S)-5-oxopyrrolidin-2-yl)methyl)amino)methyl)pyridin-2-yl)-[1,1′-biphenyl]-3-yl)-2-methoxy-3-(((((S)-5-oxopyrrolidin-2-yl)methyl)amino)methyl)-4H-pyrido[1,2-a]pyrimidin-4-one]: the IC50 was found to be 100 nM.

The compound `CNC(=O)CNCc1cnc2cc(-c3cccc(-c4cccc(-c5ccc(CNC[C@@H]6CCC(=O)N6)c(OC)n5)c4Cl)c3Cl)ccn2c1=O` [Example 202, (S)-2-(((8-(2,2′-Dichloro-3′-(6-methoxy-5-((((5-oxopyrrolidin-2-yl)methyl)amino)methyl)pyridin-2-yl)-[1,1′-biphenyl]-3-yl)-4-oxo-4H-pyrido[1,2-a]pyrimidin-3-yl)methyl)amino)-N-methylacetamide] gave an IC50 of 0.1 nM.

`COc1c(CNC[C@@H]2CCC(=O)N2)cc(Cl)c2nc(-c3cccc(-c4cccc(-c5ccn6c(=O)c(CNC[C@@H]7CCC(=O)N7)cnc6c5)c4Cl)c3Cl)ccc12` [Example 203, 8-[2-chloro-3-[2-Chloro-3-[8-chloro-5-methoxy-6-[[[(2S)-5-oxopyrrolidin-2-yl]methylamino]methyl]-2-quinolyl]phenyl]phenyl]-3-[[[(2S)-5-oxopyrrolidin-2-yl]methylamino]methyl] pyrido[1,2-a]pyrimidin-4-one]: the IC50 came to 150 nM.

Consider `COc1nc(-c2cccc(-c3cccc(-c4ccn5c(=O)c(CN[C@H]6C[C@](C)(O)C6)c(C)nc5c4)c3Cl)c2Cl)ccc1CNC[C@@H]1CCC(=O)N1` [Example 204, 8-(2,2′-Dichloro-3′-(6-methoxy-5-(((((S)-5-oxopyrrolidin-2-yl)methyl)amino)methyl)pyridin-2-yl)-[1,1′-biphenyl]-3-yl)-3-((((1r,3r)-3-hydroxy-3-methylcyclobutyl)amino)methyl)-2-methyl-4H-pyrido[1,2-a]pyrimidin-4-one], for which half-maximal inhibition (IC50) was put at 0.1 nM.

As for `COc1nc(-c2cccc(-c3cccc(-c4ccn5c(=O)c(CN[C@H]6C[C@](C)(O)C6)c(C)nc5c4)c3Cl)c2Cl)ccc1CN[C@H]1C[C@](C)(O)C1` [Example 205, 8-(2,2′-Dichloro-3′-(5-((((1r,3r)-3-hydroxy-3-methylcyclobutyl)amino)methyl)-6-methoxypyridin-2-yl)-[1,1′-biphenyl]-3-yl)-3-((((1r,3r)-3-hydroxy-3-methylcyclobutyl)amino)methyl)-2-methyl-4H-pyrido[1,2-a]pyrimidin-4-one], the IC50 amounted to 0.9 nM.

Take `COc1nc(-c2cccc(-c3cccc(-c4ccn5c(=O)c(CNCCN6CCNC6=O)cnc5c4)c3Cl)c2Cl)ccc1CNC[C@@H]1CCC(=O)N1` [Example 207, (S)-8-(2,2′-Dichloro-3′-(6-methoxy-5-((((5-oxopyrrolidin-2-yl)methyl)amino)methyl)pyridin-2-yl)-[1,1′-biphenyl]-3-yl)-3-(((2-(2-oxoimidazolidin-1-yl)ethyl)amino)methyl)-4H-pyrido[1,2-a]pyrimidin-4-one]: the IC50 turned out to be 0.3 nM.

The compound `COc1nc(-c2cccc(-c3cccc(-c4ccn5c(=O)c(CNC[C@@H]6CCC(=O)N6)cnc5c4)c3C(F)(F)F)c2Cl)ccc1CNC[C@@H]1CCC(=O)N1` [Example 208, 8-(2′-Chloro-3′-(6-methoxy-5-(((((S)-5-oxopyrrolidin-2-yl)methyl)amino)methyl)pyridin-2-yl)-2-(trifluoromethyl)-[1,1′-biphenyl]-3-yl)-3-(((((S)-5-oxopyrrolidin-2-yl)methyl)amino)methyl)-4H-pyrido[1,2-a]pyrimidin-4-one] yielded a half-maximal inhibitory concentration (IC50) of 38 nM.

Consider `CNC(=O)C(C)(C)NCc1cnc2cc(-c3cccc(-c4cccc(-c5ccc(CNC[C@@H]6CCC(=O)N6)c(OC)n5)c4Cl)c3Cl)ccn2c1=O` [Example 209, (S)-2-(((8-(2,2′-Dichloro-3′-(6-methoxy-5-((((5-oxopyrrolidin-2-yl)methyl)amino)methyl)pyridin-2-yl)-[1,1′-biphenyl]-3-yl)-4-oxo-4H-pyrido[1,2-a]pyrimidin-3-yl)methyl)amino)-N,2-dimethylpropanamide], for which it took 0.1 nM to reach half-maximal inhibition (IC50).

`CNC(=O)CCNCc1cnc2cc(-c3cccc(-c4cccc(-c5ccc(CNC[C@@H]6CCC(=O)N6)c(OC)n5)c4Cl)c3Cl)ccn2c1=O` [Example 210, (S)-3-(((8-(2,2′-dichloro-3′-(6-methoxy-5-((((5-oxopyrrolidin-2-yl)methyl)amino)methyl)pyridin-2-yl)-[1,1′-biphenyl]-3-yl)-4-oxo-4H-pyrido[1,2-a]pyrimidin-3-yl)methyl)amino)-N-methylpropanamide] displayed an IC50 of 0.1 nM.

For the compound `COc1nc(-c2cccc(-c3cccc(-c4cc(C)n5c(=O)c(CN[C@H]6C[C@](C)(O)C6)cnc5c4)c3Cl)c2Cl)ccc1CNC[C@@H]1CCC(=O)N1` [Example 211], the IC50 is 21 nM.

Consider `COc1nc(-c2cccc(-c3cccc(-c4ccc5nc(CNC[C@@H]6CCC(=O)N6)cc(=O)n5c4)c3Cl)c2Cl)ccc1CNC[C@@H]1CCC(=O)N1` [Example 212, 7-(2,2′-Dichloro-3′-(6-methoxy-5-(((((S)-5-oxopyrrolidin-2-yl)methyl)amino)methyl)pyridin-2-yl)-[1,1′-biphenyl]-3-yl)-2-(((((S)-5-oxopyrrolidin-2-yl)methyl)amino)methyl)-4H-pyrido[1,2-a]pyrimidin-4-one], for which the IC50 came to 0.1 nM.

`COc1nc(-c2cccc(-c3cccc(-c4ccn5c(=O)c(CNCC[C@@H]6CCC(=O)N6)cnc5c4)c3Cl)c2Cl)ccc1CNC[C@@H]1CCC(=O)N1` [Example 214, 8-[2-chloro-3-[2-chloro-3-[6-methoxy-5-[[[(2S)-5-oxopyrrolidin-2-yl]methylamino]methyl]-2-pyridyl]phenyl]phenyl]-3-[[2-[(2S)-5-oxopyrrolidin-2-yl]ethylamino]methyl]pyrido[1,2-a]pyrimidin-4-one]: it took 0.5 nM to reach half-maximal inhibition (IC50).

`COc1nc(-c2cccc(-c3cccc(-c4ccn5c(=O)c(CNCCc6c[nH]cn6)cnc5c4)c3Cl)c2Cl)ccc1CNC[C@@H]1CCC(=O)N1` [Example 215, 8-[2-chloro-3-[2-chloro-3-[6-methoxy-5-[[[(2S)-5-oxopyrrolidin-2-yl]methylamino]methyl]-2-pyridyl]phenyl]phenyl]-3-[[2-(1H-imidazol-4-yl)ethylamino]methyl]pyrido[1,2-a]pyrimidin-4-one] gave an IC50 of 8 nM.

Compound `COc1nc(-c2cccc(-c3cccc(-c4ccn5c(=O)c(CNCCn6cnnc6)cnc5c4)c3Cl)c2Cl)ccc1CNC[C@@H]1CCC(=O)N1` [Example 216, 8-[2-Chloro-3-[2-chloro-3-[6-methoxy-5-[[[(2S)-5-oxopyrrolidin-2-yl]methylamino]methyl]-2-pyridyl]phenyl]phenyl]-3-[[2-(1,2,4-triazol-4-yl)ethylamino]methyl]pyrido[1,2-a]pyrimidin-4-one] came in with an IC50 of 0.1 nM.

`COc1nc(-c2cccc(-c3cccc(-c4cnc5c(N)c(CO)sc5c4)c3Cl)c2Cl)ccc1CNC[C@@H]1CCC(=O)N1` [Example 217, (S)-5-((((6-(3′-(3-Amino-2-(hydroxymethyl)-thieno[3,2-b]-pyridin-6-yl)-2,2′-dichloro-[1,1′-biphenyl]-3-yl)-2-methoxypyridin-3-yl)methyl)amino)methyl)pyrrolidin-2-one]: the IC50 amounted to 3.5 nM.

As to `COc1nc(-c2cccc(-c3cccc(-c4ccc5c(n4)OCCNC5)c3Cl)c2Cl)ccc1CNC[C@@H]1CCC(=O)N1` [Example 218, (S)-5-((((6-(2,2′-Dichloro-3′-(2,3,4,5-tetrahydropyrido[3,2-f][1,4]oxazepin-8-yl)-[1,1′-biphenyl]-3-yl)-2-methoxypyridin-3-yl)methyl)amino)methyl)887yrrolidine-2-one], the IC50 came to 0.6 nM.

As to `COc1nc(-c2cccc(-c3cccc(-c4ccn5c(=O)c(CNCCN6CCCC6=O)cnc5c4)c3Cl)c2Cl)ccc1CNC[C@@H]1CCC(=O)N1` [Example 219, 8-[2-Chloro-3-[2-chloro-3-[6-methoxy-5-[[[(2S)-5-oxopyrrolidin-2-yl]methylamino]methyl]-2-pyridyl]phenyl]phenyl]-3-[[2-(2-oxopyrrolidin-1-yl)ethylamino]methyl]pyrido[1,2-a]pyrimidin-4-one], the IC50 is 0.7 nM.

Take `COC(=O)C[C@H](O)CNCc1cnc2cc(-c3cccc(-c4cccc(-c5ccc(CNC[C@@H]6CCC(=O)N6)c(OC)n5)c4Cl)c3Cl)ccn2c1=O` [Example 220, Methyl (3S)-4-[[8-[2-chloro-3-[2-chloro-3-[6-methoxy-5-[[[(2S)-5-oxopyrrolidin-2-yl]methylamino]methyl]-2-pyridyl]phenyl]phenyl]-4-oxo-pyrido[1,2-a]pyrimidin-3-yl]methylamino]-3-hydroxy-butanoate]: the IC50 was 0.1 nM.
